Patent US12622918B2, “Formulations and dosages for administering a compound that inhibits MCL1 protein” (Amgen Inc., priority 2019, dated 2026)

Assays:
KMS-12-BM = assay: Cell viability (CellTiterGlo), KMS-12-BM; type: cell-based; conditions: Homo sapiens, Multiple myeloma, 24 hours, 10% FBS, read-out: AMS 176 IC50
Ramos = assay: Cell viability (CellTiterGlo), Ramos; type: cell-based; conditions: Homo sapiens, NHL, 24 hours, 10% FBS, read-out: AMS 176 IC50
HL-60 = assay: Cell viability (CellTiterGlo), HL-60; type: cell-based; conditions: Homo sapiens; HL-60, AML; 24 hours; 10% FBS; read-out: AMS 176 IC50
KMS26 = assay: Cell viability (CellTiterGlo), KMS26; type: cell-based; conditions: KMS-26; KMS26, Multiple myeloma; 24 hours; 10% FBS; read-out: AMS 176 IC50
KMM1 = assay: Cell viability (CellTiterGlo), KMM1; type: cell-based; conditions: KMM-1; KMM1, Multiple myeloma; 24 hours; 10% FBS; read-out: AMS 176 IC50
KMS34 = assay: Cell viability (CellTiterGlo), KMS34; type: cell-based; conditions: KMS-34; KMS34, Multiple myeloma; 24 hours; 10% FBS; read-out: AMS 176 IC50
Pfeiffer = assay: Cell viability (CellTiterGlo), Pfeiffer; type: cell-based; conditions: Homo sapiens, NHL, 24 hours, 10% FBS, read-out: AMS 176 IC50
caspase 3 = assay: Caspase 3 cleavage in OPM2-Luc tumor xenografts (PD); type: in vivo, mice; conditions: for induction of caspase 3 cleavage: 4-, vs vehicle p<0.05
Method: (§1) Activation of the pro-apoptotic pore-forming protein BAK and proteolytic cleavage of the cysteine-aspartic acid protease caspase 3 (hallmarks of the induction of apoptosis) in MCL1-dependent OPM2-Luc multiple myeloma tumor cells served as a PD assay. Female athymic nude mice were injected with 5×10^6 cells in 0.1 mL subcutaneously (SC). […] Mice were euthanized 2, 4, 8, 12, and 24 hours postdose (n=3/group), terminal plasma samples were collected for PK analysis, and tumors were halved and snap frozen in liquid nitrogen for PK and molecular analyses. Tumor lysates were prepared for evaluation of BAK activation and caspase 3 cleavage using an electrochemiluminescence immunoassay. Tumors treated with vehicle (25% HPβCD, pH 8) served as a negative control and indicated the baseline level of apoptosis.

[1] = Plasma concentration in OPM2-Luc tumor-bearing mice; type: in vivo; conditions: 60 mg/kg oral gavage; female athymic nude mice
Method: as §1

[2] = system: OPM2-Luc tumor xenografts; assay: OPM2-Luc xenograft efficacy, once daily dosing; type: in vivo, mice; conditions: for animals tumor free: day 24
Method: OPM2-Luc cells (5×10^6) were implanted subcutaneously into female athymic nude mice. […] Three of 10 animals in the 30 mg/kg group and 10 of 10 animals in the 60 mg/kg group were tumor free on day 24.

Pharmacokinetics in mice = type: in vivo
Text: The pharmacokinetics (PK) of the compound of Formula I after single intravenous (IV) or oral administration were characterized in male CD1 mice, female athymic nude mice, male Nu/Nu mice, male Sprague Dawley rats, male beagle dogs, and male cynomolgus monkeys. The clearance (CL) of the compound was low in mice, rats, dogs, and monkeys relative to their hepatic blood flow. Volume of distribution at steady state (Vss) in mice, rats, dogs, and monkeys was variable across the species.

[3] = Plasma protein binding in vitro; type: in vitro ADME
dogs = assay: 28-day GLP IV toxicology study in dogs; type: in vivo; conditions: dog
Text: The doses selected for the 28-day IV rat and dog toxicology studies were intended to characterize the toxicity of the compound of Formula I and provide data to support a starting dose in the first-in-human (FIH) study. An IV route of administration and a dosing schedule of 2 days on/5 days off was used to support the anticipated clinical route and dosing schedule.

[4] = Text: Nonclinical safety studies on the compound of Formula I consisted of an exploratory 14-day dog IV toxicology study, Good Laboratory Practices (GLP) 28-day rat and dog IV toxicology studies, in vitro exploratory genotoxicity studies (GLP human ether-á-go-go related gene [hERG] and non-GLP isolated rabbit heart) to characterize potential cardiovascular effects. The doses selected for the 28-day IV rat and dog toxicology studies were intended to characterize the toxicity of the compound of Formula I and provide data to support a starting dose in the first-in-human (FIH) study. An IV route of administration and a dosing schedule of 2 days on/5 days off was used to support the anticipated clinical route and dosing schedule. In a 28-day GLP rat IV infusion toxicology study, the severely toxic dose in 10% of animals (STD10) was 60 mg/kg based on mortality at 120 mg/kg and in a 28-day GLP IV toxicology study in dogs, the highest-nonseverely-toxic dose (HNSTD) was 10 mg/kg based on mortality at 20 mg/kg.
dog blood = assay: In vitro hemolysis of whole blood, dog; conditions: 0.1 and 1.0 mg/mL, vehicles containing hydroxypropyl-β-cyclodextrin
[5] = system: subjects with relapsed/refractory multiple myeloma; assay: Phase 1 FIH study, multiple myeloma part 1b (QW); type: in vivo, human
Method: In part 1a, subjects were enrolled across 8 cohorts, with doses ranging from 30 to 240 mg/m^2 QD2. In part 1b, subjects were enrolled across 2 cohorts, with doses of 120/180-mg/m^2 or 120/240-mg/m^2.

CO[C@H]1/C=C/C[C@H](C)[C@@H](C)S(=O)(=O)NC(=O)c2ccc3c(c2)N(C[C@@H]2CC[C@H]21)C[C@@]1(CCCc2cc(Cl)ccc21)CO3 [AMG 176]
IC50 (KMS-12-BM): 15 nM | IC50 (Ramos): 34 nM | IC50 (HL-60): 110 nM | IC50 (KMS26): 248 nM | IC50 (KMM1): 407 nM | IC50 (KMS34): 6050 nM | IC50 (Pfeiffer): 18900 nM | induction of caspase 3 cleavage (caspase 3; 20 mg/kg oral gavage, 8-, and 12-hour time points): Statistically significant induction of caspase 3 cleavage | induction of caspase 3 cleavage (caspase 3; 30 mg/kg oral gavage, 2-, 8-, and 12-hour time points): Statistically significant induction of caspase 3 cleavage | induction of caspase 3 cleavage (caspase 3; 60 mg/kg oral gavage, 2-, 8-, 12-, and 24-hour time points): Statistically significant induction of caspase 3 cleavage | induction of cleaved caspase 3 (caspase 3; 60 mg/kg, 2 hours postdose, persisted to 12 hours): approximately 7.5 fold | cleaved caspase levels above control (caspase 3; 60 mg/kg, 24 hours postdose): 5 fold | time point of peak AMG 176 plasma concentration [1]: 4 h | TGI ([2]; 20 mg/kg once daily oral gavage, p<0.001): 63% | effect on established OPM2-Luc tumors ([2]; 30 mg/kg and 60 mg/kg orally once daily, summary statement): tumor regression | tumor regression ([2]; 30 mg/kg once daily oral gavage, p<0.001): 50% | animals tumor free ([2]; 30 mg/kg once daily): Three of 10 | tumor regression ([2]; 60 mg/kg once daily oral gavage, p<0.0001): 100% | animals tumor free ([2]; 60 mg/kg once daily): 10 of 10 | changes in body weight and body score assessment ([2]; 10-60 mg/kg once daily oral gavage): no evidence of AMG 176-related changes | mean terminal elimination half-life (t1/2,z) (Pharmacokinetics in mice): 13.8 h | plasma protein binding [3]: highly plasma-protein bound | finding related to morbidity and mortality (dogs): mucosal epithelial degeneration in the small and large intestines | dose with mortality (dogs; IV, 28-day): 20 mg/kg | highest-nonseverely-toxic dose (HNSTD) (dogs; IV, 2 days on/5 days off, 28-day): 10 mg/kg | genotoxicity [4]: not mutagenic or clastogenic | hemolysis of whole blood (dog blood): cased hemolysis | Grade 3 adverse events, subjects ([5]; MM part 1b): 83% | adverse events considered related to AMG 176, subjects ([5]; MM part 1b): 83 %/a | adverse events leading to discontinuation of investigational product ([5]; MM part 1b): no adverse event led to discontinuation | fatal adverse events ([5]; MM part 1b): no fatal adverse events occurred | grade 4 adverse events, subjects ([5]; MM part 1b): 17% | hypertension of grade 3 or higher ([5]; MM part 1b): 33% | neutropenia of grade 3 or higher ([5]; MM part 1b): 67% | serious adverse events ([5]; MM part 1b): No serious adverse events were reported | adverse events, subjects ([5]; MM part 1b QW, 6 subjects): 83% | diarrhea, subjects ([5]; MM part 1b, any grade): 33% | fatigue, subjects ([5]; MM part 1b, any grade): 33% | hypertension, subjects ([5]; MM part 1b, any grade): 33% | nausea, subjects ([5]; MM part 1b, any grade): 50% | neutropenia, subjects ([5]; MM part 1b, any grade): 67% | exposures (Cmax and AUC) versus dose ([5]; MM part 1b, 6 subjects, preliminary): generally increased with increasing doses
